Experimental data from patent US9994915B2, “miR-211 expression and related pathways in human melanoma” (Sanford-Burnham Medical Research Institute, priority 2010, dated 2018).

Tests used:
Type in all cases: cell-based, human
A375 cells = assay: cell counts after DFO (simulated hypoxia), A375 and A375/211
Protocol: (§1) A375 cells and WM1552C, both wild-type and miR-211-expressing, were subjected to treatment with 0, 250 nM, or 400 nM defroxamine (DFO) to simulate hypoxic conditions in order to determine whether miR-211 expression is capable of being regulated by changes in O2 concentrations. Cell counts were performed for each treatment group.
(§2) Relative to untreated cells, survival was about 45% following 250 nM DFO and about 25% following 400 nM DFO. The presence of miR-211 in these cells caused this effect to be greatly exacerbated, reducing survival to about 13% at 250 nM DFO and about 8% at 400 nM DFO. Similarly, for WM1552C cells, survival was about 77% at 250 nM DFO and about 55% at 400 nM DFO, compared to untreated cells (FIG. 21).

WM1552C cells = assay: cell counts after DFO (simulated hypoxia), WM1552C and WM1552C/211
Protocol: as §1, §2

SKMEL-28 cells = assay: cell counts after DFO with or without miR-211 inhibitor, SKMEL-28
Protocol: SKMEL-28 cells, were subjected to the same DFO or hypoxic conditions as described above either in the presence or absence of an miR-211 inhibitor (has-miR-211 Anti-miR™ miRNA Inhibitor, Ambion, catalog numberAM17000, ID AM10168). […] The survival of SKMEL-28 cells was about 64% at 250 nM DFO and about 50% 400 nM DFO, compared to untreated cells. […] The survival of the SKMEL-28 cells treated with the miR-211 inhibitor was about 85% at 250 nM DFO and about 70% at 400 nM DFO.

miR-211 expression [1] = assay: qPCR of miR-211 expression under simulated hypoxia in melanocytes; conditions: DFO-simulated hypoxia
Protocol: (§3) The effect of hypoxia on miR-211 expression was investigated under simulated (DFO) and actual hypoxic conditions in both melanocytes and SKMEL-28 cells. miRNA-211 expression was determined by qPCR.

miR-211 expression [2] = assay: qPCR of miR-211 expression under simulated hypoxia in SKMEL-28 cells; conditions: DFO-simulated hypoxia
Protocol: as §3

IGFBP5 mRNA = assay: Next Gen sequencing of IGFBP5 mRNA in WM1552C cells
Protocol: To extend the findings of the MITF knock-down study and to further establish IGFBP5 as a miR-211 target, the effect of miR-211 expression on IGFBP5 mRNA was determined. WM1552C cells were transfected with either an empty vector or the vector encoding and expressing miR-211. Additionally, untransfected WM1552C cells were treated with 5-Aza-2′deoxycytidine (“5-Aza”) to investigate whether miR-211 down-regulates IGFBP5 mRNA production through a genomic methylation mechanism.

## CC(=O)N(O)CCCCCNC(=O)CCC(=O)N(O)CCCCCNC(=O)CCC(=O)N(O)CCCCCN [DFO, defroxamine]
A375 cells; A375/211 (miR-211-expressing) cells, 250 nM DFO
  survival relative to untreated cells: about 13%
A375 cells; A375/211 (miR-211-expressing) cells, 400 nM DFO
  survival relative to untreated cells: about 8%
A375 cells; A375 cells, 250 nM DFO
  survival relative to untreated cells: about 45%
A375 cells; A375 cells, 400 nM DFO
  survival relative to untreated cells: about 25%
A375 cells; miR-211-expressing melanoma cells treated with hypoxia mimetic agent
  cell death: increased cell death
WM1552C cells; WM1552C cells, 250 nM DFO
  survival compared to untreated cells: about 77%
WM1552C cells; WM1552C cells, 400 nM DFO
  survival compared to untreated cells: about 55%
WM1552C cells; WM1552C/211 (miR-211-expressing) cells, 250 nM DFO
  survival compared to untreated cells: about 40%
WM1552C cells; WM1552C/211 (miR-211-expressing) cells, 400 nM DFO
  survival compared to untreated cells: about 21%
SKMEL-28 cells; 250 nM DFO
  survival compared to untreated cells: about 64%
SKMEL-28 cells; 400 nM DFO
  survival compared to untreated cells: about 50%
miR-211 expression [1]
  miR-211 expression: increases in a dose-dependent manner
miR-211 expression [2]
  miR-211 expression: neither simulated nor actual hypoxic conditions had a significant effect

## Nc1ncn([C@H]2C[C@H](O)[C@@H](CO)O2)c(=O)n1 [5-Aza, 5-Aza-2′deoxycytidine, reference compound]
IGFBP5 mRNA
  IGFBP5 mRNA expression: no effect
